Values of other authors in patent US20230181603A1, “METHODS OF TREATING CANCER WITH METABOLITE ADJUSTMENTS” (priority 2021, published 2023).

Tests used:
glial precursor cell = settings: slice cultures

Structure (SMILES): CCCCCCCCCCCCCCCC(=O)OC[C@H](O)[C@H]1OC(=O)C(O)=C1O [Ascorbyl palmitate]
- hyaluronidase inhibitor effective concentration (hyaluronidase): low-micromolar range
- inhibition of glial precursor cell migration (glial precursor cell): potently inhibits
